In one assay the target is AAK1 (Homo sapiens, UniProt Q2M2I8). In words: pAP2M1 cell-based assay (in-cell Western). The following applies: Hela cells co-transfected with AP2M1 and AAK1, 3 hr treatment; class symbols; read-out: AAK1 In-cell Western: IC50. The source says: pAP2M1 Cell-Based Assay (in-Cell Western):
The plate was read on Licor Odyssey CLx imaging system (LICOR) to acquire fluorescence intensity at 700 channel and 800 channel.
Data analysis: Fluorescence intensity at 700 channel served as internal standard and 800 channel were normalized with 700 channel.

Assay [1] deals with T1, AAK1 (amino acids T27-A365) (Homo sapiens, UniProt Q2M2I8).
T1 construct: against AAK1 (amino acids T27-A365); 6His (N, cleaved yes)
T1 sequence (Q2M2I8 27-365): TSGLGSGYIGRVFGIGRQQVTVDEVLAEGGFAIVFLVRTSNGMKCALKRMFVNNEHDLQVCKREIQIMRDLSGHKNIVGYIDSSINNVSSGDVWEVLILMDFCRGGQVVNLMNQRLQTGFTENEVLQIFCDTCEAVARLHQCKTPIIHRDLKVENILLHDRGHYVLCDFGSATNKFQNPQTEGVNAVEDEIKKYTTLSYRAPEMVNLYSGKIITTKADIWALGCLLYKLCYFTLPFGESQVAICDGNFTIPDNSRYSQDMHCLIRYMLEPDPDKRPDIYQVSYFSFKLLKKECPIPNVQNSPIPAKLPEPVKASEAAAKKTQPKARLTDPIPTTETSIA
In words: AAK1 pSENs assay. As to conditions: class symbols; read-out: AAK1 pSENs: EIC50. Format: biochemical. The method, then:
The recombinant proteins were independently expressed in Escherichia coli BL21(DE3) cells cultured in Luria-Bertani (LB) medium until OD600 reached 0.6-0.8, then cooled to 15° C. and supplemented with 0.5 mM isopropyl 1-thio-D-galactopyranoside (IPTG) induce protein expression 16 h. Cells were harvested and resuspended in lysis buffer (50 mM HEPES pH 7.5, 500 mM NaCl, 5 mM imidazole, 5% glycerol, 0.5 mM Tris (2-carboxyethyl) phosphine (TCEP), cOmplete Protease Inhibitor Tablet (Roche)) and lysed by microfludics high pressure homogenizer (UH-06, Union-Biotech). Proteins were purified using […] chromatography (His FF column, Bestchrom) and eluted stepwise in binding buffer with 20-300 mM imidazole. Removal of the hexahistidine tag was performed at 4° C. overnight using recombinant TEV protease and reacted with BirA to obtain the corresponding biotinylated-AAK1, BIKE or GAK proteins. Further separated in the reverse Strep column (Strep-Tactin® XT, IBA). The Biotin elution sample was collected containing untagged biotinylated protein was then purified by Ion-exchange chromatography (Mono Q 10/100 GL, Cytiva) and Size-exclusion chromatography (HiLoad 16/600 Superdex 200 pg, Cytiva). The pure protein was stored in a storage buffer 50 mM HEPES (pH 7.5), 300 mM NaCl, 5% glycerol at −80° C. Protein were characterized by SDS-PAGE, LC-MS and aSEC.
This example describes one illustrative method for determining the IC50 of the compounds of the present invention against AAK1 (amino acids T27-A365). AAK1 protein was dissolved at 20 nM in 1× enzyme solution (50 mM HEPES pH7.5, 10 mM MgCl2, 1 mM DTT, 1% glycerol, 0.5 mM EGTA, 0.01% Briji35, 0.02% BSA) and 12.5 ul was incubated with 250 nl DMSO or 250 nl compound in DMSO at 25° C. for 15 min. The reaction was started by addition of 12.5 ul of 30 uM AQT0759 (Assayquant, CSKS-AQT0759B) and 70 uM ATP which were diluted in 1× substrate dilution buffer (50 mM HEPES pH7.5, 10 mM MgCl2, 1 mM DTT, 1% glycerol, 0.5 mM EGTA, 0.01% Briji35).

AAK1, sequence (Q2M2I8 whole entry): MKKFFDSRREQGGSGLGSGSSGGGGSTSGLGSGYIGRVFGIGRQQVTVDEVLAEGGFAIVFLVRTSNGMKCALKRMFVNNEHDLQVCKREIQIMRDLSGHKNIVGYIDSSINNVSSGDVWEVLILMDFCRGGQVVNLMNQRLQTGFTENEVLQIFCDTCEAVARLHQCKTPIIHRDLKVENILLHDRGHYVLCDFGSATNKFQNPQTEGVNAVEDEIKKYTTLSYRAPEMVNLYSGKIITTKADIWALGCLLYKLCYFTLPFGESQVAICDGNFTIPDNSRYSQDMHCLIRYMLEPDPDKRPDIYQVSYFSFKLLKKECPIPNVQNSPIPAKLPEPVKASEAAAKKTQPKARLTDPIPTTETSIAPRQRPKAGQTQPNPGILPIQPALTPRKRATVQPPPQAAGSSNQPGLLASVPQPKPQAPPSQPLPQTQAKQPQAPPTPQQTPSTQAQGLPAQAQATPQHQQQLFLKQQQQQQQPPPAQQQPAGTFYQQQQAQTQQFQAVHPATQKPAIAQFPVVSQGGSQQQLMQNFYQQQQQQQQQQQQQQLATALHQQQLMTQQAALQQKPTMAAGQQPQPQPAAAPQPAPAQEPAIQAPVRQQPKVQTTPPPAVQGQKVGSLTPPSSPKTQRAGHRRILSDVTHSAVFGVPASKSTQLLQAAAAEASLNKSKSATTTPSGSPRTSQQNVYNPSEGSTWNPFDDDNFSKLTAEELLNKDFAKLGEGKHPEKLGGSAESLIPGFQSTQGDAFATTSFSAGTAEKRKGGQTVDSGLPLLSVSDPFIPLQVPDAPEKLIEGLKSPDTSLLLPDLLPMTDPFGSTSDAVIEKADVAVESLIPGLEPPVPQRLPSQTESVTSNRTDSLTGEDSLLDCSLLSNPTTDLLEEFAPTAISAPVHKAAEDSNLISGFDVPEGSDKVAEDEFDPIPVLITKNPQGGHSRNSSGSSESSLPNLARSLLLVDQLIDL

In the case of `N#C[C@@H]1CN(c2ccn3ncc(-c4cccnc4OC4CC4)c3n2)CCN1C(=O)O[C@@H]1CNC(=O)C1` [Compound I-41, (S)-5-Oxopyrrolidin-3-yl (S)-2-cyano-4-(3-(2-cyclopropoxypyridin-3-yl)pyrazolo[1,5-a]pyrimidin-5-yl)piperazine-1-carboxylate], the values for the IC50 (on AAK1; in assay [1]) were > 1.5 µM and 0.151 to 0.5 µM, respectively.
The matching figures for `COC(=O)N1CC(Oc2ncccc2-c2cnn3ccc(N4CCN(C(=O)O[C@@H]5CC(=O)N(C)C5)CC4)nc23)C1` [Compound I-83, [(3R)-1-methyl-5-oxo-pyrrolidin-3-yl]4-[3-[2-(1-methoxycarbonylazetidin-3-yl)oxy-3-pyridyl]pyrazolo[1,5-a]pyrimidin-5-yl]piperazine-1-carboxylate]: 0.501 to 1.5 µM and 0.001 to 0.05 µM.
The like results for `COC(=O)[C@@H]1CN(c2ccn3ncc(-c4cccnc4OC4CC4)c3n2)CCN1C(=O)O[C@@H]1CNC(=O)C1` [Compound I-41-5, 2-Methyl 1-((S)-5-oxopyrrolidin-3-yl) (S)-4-(3-(2-cyclopropoxypyridin-3-yl)pyrazolo[1,5-a]pyrimidin-5-yl)piperazine-1,2-dicarboxylate] were, in that order, > 1.5 µM and 0.151 to 0.5 µM.
The matching figures for `C[C@H]1CN(c2ccn3ncc(-c4cccnc4OC4CC4)c3n2)CCN1C(=O)O[C@@H]1CNC(=O)C1` [Compound I-40, [(3S)-5-Oxopyrrolidin-3-yl](2S)-4-[3-[2-(cyclopropoxy)-3-pyridyl]pyrazolo[1,5-a]pyrimidin-5-yl]-2-methyl-piperazine-1-carboxylate]: > 1.5 µM and 0.151 to 0.5 µM.
Turning to `C[C@@]1(OC(=O)N[C@@H]2CCN(c3ccn4ncc(-c5cccnc5OC5CC5)c4n3)C2)CCNC1` [Compound I-56, (R)-3-methylpyrrolidin-3-yl ((R)-1-(3-(2-cyclopropoxypyridin-3-yl)pyrazolo[1,5-a]pyrimidin-5-yl)pyrrolidin-3-yl)carbamate], the figures for the IC50 (on AAK1; in assay [1]) were > 1.5 µM and 0.151 to 0.5 µM, respectively.
The like results for `Cc1cn2ncc(-c3cccnc3OC3CC3)c2nc1N1CCN(C(=O)O[C@H]2CC(=O)N(C)C2)CC1` [Compound I-111, [(3S)-1-methyl-5-oxo-pyrrolidin-3-yl]-4-[3-[2-(cyclopropoxy)-3-pyridyl]-6-methyl-pyrazolo[1,5-a]pyrimidin-5-yl]piperazine-1-carboxylate] were, in that order, > 1.5 µM and 0.501 to 1.5 µM.
The like results for `COC(=O)N1CC(Oc2ncccc2-c2cnn3ccc(N4CCN(C(=O)O[C@@H]5CC(=O)N(C6COC6)C5)CC4)nc23)C1` [Compound I-85, [(3R)-1-(oxetan-3-yl)-5-oxo-pyrrolidin-3-yl]-4-[3-[2-(1-methoxycarbonylazetidin-3-yl)oxy-3-pyridyl]pyrazolo[1,5-a]pyrimidin-5-yl]piperazine-1-carboxylate] were, in that order, > 1.5 µM and 0.501 to 1.5 µM.
The like results for `CC(C)Nc1ncccc1-c1cnn2ccc(N3CCN(C(=O)O[C@@H]4CNC(=O)C4)CC3)nc12` [Compound I-47, [(3S)-5-oxopyrrolidin-3-yl]4-[3-[2-(isopropylamino)-3-pyridyl]pyrazolo[1,5-a]pyrimidin-5-yl]piperazine-1-carboxylate] were, in that order, > 1.5 µM and > 1.5 µM.
In the case of `O=C1C[C@H](OC(=O)N2CCN(c3ccn4ncc(-c5cccnc5OC5CC5)c4n3)C[C@H]2C(=O)O)CN1` [Compound I-41-4C, (S)-4-(3-(2-Cyclopropoxypyridin-3-yl)pyrazolo[1,5-a]pyrimidin-5-yl)-1-((((S)-5-oxopyrrolidin-3-yl)oxy)carbonyl)piperazine-2-carboxylic acid], the IC50 (at AAK1; in assay [1]) was > 1.5 µM in each case.
As for `O=C1C[C@H](OC(=O)N[C@H]2CCN(c3ccn4ncc(-c5cccnc5OC5CC5)c4n3)C2)CN1` [Compound I-55, (S)-5-oxopyrrolidin-3-yl ((S)-1-(3-(2-cyclopropoxypyridin-3-yl)pyrazolo[1,5-a]pyrimidin-5-yl)pyrrolidin-3-yl)carbamate], the IC50 was > 1.5 µM at AAK1 and 0.151 to 0.5 µM in assay [1].
Turning to `CN1CC(Oc2ncccc2-c2cnn3ccc(N4CCN(C(=O)O[C@@H]5CNC(=O)C5)CC4)nc23)C1` [Compound I-44, (S)-5-Oxopyrrolidin-3-yl 4-(3-(2-((1-methylazetidin-3-yl)oxy)pyridin-3-yl)pyrazolo[1,5-a]pyrimidin-5-yl)piperazine-1-carboxylate], the IC50 (at AAK1; in assay [1]) was > 1.5 µM throughout.
With `O=C(O[C@H]1CO[C@H]2OCC[C@H]21)N1CCN(c2ccn3ncc(-c4ccccc4OC4CC4)c3n2)CC1` [Compound I-68, [(3aS,4R,6aR)-2,3,3a,4,5,6a-hexahydrofuro[2,3-b]furan-4-yl]4-[3-[2-(cyclopropoxy)phenyl]pyrazolo[1,5-a]pyrimidin-5-yl]piperazine-1-carboxylate], the IC50 was in the range of 0.501 to 1.5 µM on AAK1 and 0.051 to 0.15 µM in assay [1].
`CN(C)CCN1CC[C@@](C)(OC(=O)N2CCN(c3ccn4ncc(-c5cccnc5OC5CC5)c4n3)CC2)C1` [Compound I-53, (R)-1-(2-(dimethylamino)ethyl)-3-(methylpyrrolidin-3-yl)-4-(3-(2-cyclopropoxypyridin-3-yl)pyrazolo[1,5-a]pyrimidin-5-yl)piperazine-1-carboxylate]: the IC50 at AAK1 lay within 0.151 to 0.5 µM; in assay [1], 0.001 to 0.05 µM.
The like results for `O=C1NCC[C@@H]1OC(=O)N1CCN(c2ccn3ncc(-c4cccnc4OC4CC4)c3n2)CC1` [Compound I-24, [(3S)-2-Oxopyrrolidin-3-yl]-4-[3-[2-(cyclopropoxy)-3-pyridyl]pyrazolo[1,5-a]pyrimidin-5-yl]piperazine-1-carboxylate] were, in that order, > 1.5 µM and 0.051 to 0.15 µM.
With `O=C(O[C@@H]1CC(=O)N(C2CCNCC2)C1)N1CCN(c2ccn3ncc(-c4cccnc4OC4CC4)c3n2)CC1` [Compound I-33, (R)-5-Oxo-1-(piperidin-4-yl)pyrrolidin-3-yl 4-(3-(2-cyclopropoxypyridin-3-yl)pyrazolo[1,5-a]pyrimidin-5-yl)piperazine-1-carboxylate], the IC50 (at AAK1; in assay [1]) was > 1.5 µM throughout.
As to `NC(=O)[C@@H]1CN(c2ccn3ncc(-c4cccnc4OC4CC4)c3n2)CCN1C(=O)O[C@@H]1CNC(=O)C1` [Compound I-41-6, (S)-5-Oxopyrrolidin-3-yl-(S)-2-carbamoyl-4-(3-(2-cyclopropoxypyridin-3-yl)pyrazolo[1,5-a]pyrimidin-5-yl)piperazine-1-carboxylate], the figures for the IC50 (at AAK1; in assay [1]) were > 1.5 µM and 0.151 to 0.5 µM, respectively.
The matching figures for `CC1(OC(=O)N2CCN(c3ccn4ncc(-c5cccnc5OC5CCC5)c4n3)CC2)COC1` [Compound I-17, (3-Methyloxetan-3-yl) 4-[3-[2-(cyclobutoxy)-3-pyridyl]pyrazolo[1,5-a]pyrimidin-5-yl]piperazine-1-carboxylate]: 0.501 to 1.5 µM and 0.001 to 0.05 µM.
The like results for `Cc1nn2ccc(N3CCN(C(=O)O[C@H]4CC(=O)N(C)C4)CC3)nc2c1-c1cccnc1OC1CC1` [Compound I-108, [(3S)-1-methyl-5-oxo-pyrrolidin-3-yl]-4-[3-[2-(cyclopropoxy)-3-pyridyl]-2-methyl-pyrazolo[1,5-a]pyrimidin-5-yl]piperazine-1-carboxylate] were, in that order, > 1.5 µM and > 1.5 µM.
The like results for `CN1C[C@@H](OC(=O)N2CCN(c3nc4c(-c5cccnc5OC5CCCCC5)cnn4cc3F)CC2)CC1=O` [Compound I-123, [(3S)-1-methyl-5-oxo-pyrrolidin-3-yl]-4-[3-[2-(cyclohexoxy)-3-pyridyl]-6-fluoro-pyrazolo[1,5-a]pyrimidin-5-yl]piperazine-1-carboxylate] were, in that order, > 1.5 µM and 0.151 to 0.5 µM.
Regarding `O=C1NCC[C@H]1OC(=O)N1CCN(c2ccn3ncc(-c4cccnc4OC4CC4)c3n2)CC1` [Compound I-23, [(3R)-2-oxopyrrolidin-3-yl]-4-[3-[2-(cyclopropoxy)-3-pyridyl]pyrazolo[1,5-a]pyrimidin-5-yl]piperazine-1-carboxylate], the IC50 on AAK1 is > 1.5 µM; in assay [1], 0.051 to 0.15 µM.

For the origin of these results see US20250122207A1, “AP2 ASSOCIATED KINASE 1 INHIBITORS AND USES THEREOF” (Satellos Bioscience Inc., priority 2023, published 2025).
